Test results reported in patent US6103724A, “2-methoxyphenylpiperazine derivatives” (Richter Gedeon Vegyeszeti Gyar Rt., priority 1996, dated 2000).
Counter-ions that a name gives are not always drawn.

How the values were obtained:
α-1 receptor = assay: Alpha-1 receptor binding (3H-prazosin)
Method: The non-specific binding was measured with 10 μM (±)-phentolamine.

APO-induced sniffing = assay: Inhibition of APO-induced sniffing stereotypy; format: in vivo, CD-1 (Charles River) male mice; settings: for ED50: Mus musculus, po, mice, 1 mg/kg s.c. apomorphine 60 min after pretreatment; for Sniff./Climb. ratio: ratio of ED50 sniffing to ED50 climbing, p.o.
[1] = target: T1, 5-HT1A subtype of serotonin receptor (Rattus norvegicus, UniProt P19327); assay: biochemical; format: binding; settings: for IC50: 0.5 nM 3H-8-OH-DPAT; for D-2/5-HT1A ratio: ratio of receptor IC50 values
T1 sequence (P19327 1-422): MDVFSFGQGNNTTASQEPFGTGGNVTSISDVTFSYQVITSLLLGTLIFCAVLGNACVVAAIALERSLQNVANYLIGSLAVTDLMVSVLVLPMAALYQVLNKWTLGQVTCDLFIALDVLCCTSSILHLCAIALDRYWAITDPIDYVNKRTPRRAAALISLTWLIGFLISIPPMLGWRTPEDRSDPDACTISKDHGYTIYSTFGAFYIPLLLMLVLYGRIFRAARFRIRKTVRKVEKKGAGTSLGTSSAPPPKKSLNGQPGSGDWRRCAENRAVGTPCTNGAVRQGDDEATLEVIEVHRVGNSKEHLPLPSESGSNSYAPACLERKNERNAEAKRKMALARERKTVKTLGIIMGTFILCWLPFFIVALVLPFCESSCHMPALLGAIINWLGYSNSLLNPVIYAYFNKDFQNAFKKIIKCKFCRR
Method: Determination of the 5-HT1A subtype of serotonin receptor was carried out by a modification [M. D. Hall et al.: J. Neurochem. […] 0.5 nM ^3 H-8-OH-DPAT was used as ligand, where non-specific binding was determined by using 10 μM serotonin.

D-2 dopamine receptor = D-2 dopamine receptor (Homo sapiens, UniProt P14416); assay: biochemical; format: binding; settings: 0.5 nM 3H-spiperone
APO-induced climbing = assay: Inhibition of apomorphine (APO) induced climbing; format: in vivo, CD-1 (Charles River) male mice; settings: for ED50: Mus musculus, po, mice, 1 mg/kg s.c. apomorphine 60 min after pretreatment
Method: CD-1 (Charles River) male mice weighing 22 to 24 g were pretreated with 1% Tween 80 solution of the compound to be tested. […] Six animals were used in each group. At 60 minutes after pretreatment, the animals were treated subcutaneously with 1 mg/kg of apomorphine (APO). From the 10th to 25th minute following APO treatment the animals were scored in each minute as follows: 0: all the four legs of the animal are on the ground; 1: the animal climbs on the grid by its both forelegs; 2: the animal climbs on the grid by all its four legs. The inhibitory effect was related to the APO control group, which could achieve 32 scores as a maximum.

Sequence of D-2 dopamine receptor (P14416 whole entry): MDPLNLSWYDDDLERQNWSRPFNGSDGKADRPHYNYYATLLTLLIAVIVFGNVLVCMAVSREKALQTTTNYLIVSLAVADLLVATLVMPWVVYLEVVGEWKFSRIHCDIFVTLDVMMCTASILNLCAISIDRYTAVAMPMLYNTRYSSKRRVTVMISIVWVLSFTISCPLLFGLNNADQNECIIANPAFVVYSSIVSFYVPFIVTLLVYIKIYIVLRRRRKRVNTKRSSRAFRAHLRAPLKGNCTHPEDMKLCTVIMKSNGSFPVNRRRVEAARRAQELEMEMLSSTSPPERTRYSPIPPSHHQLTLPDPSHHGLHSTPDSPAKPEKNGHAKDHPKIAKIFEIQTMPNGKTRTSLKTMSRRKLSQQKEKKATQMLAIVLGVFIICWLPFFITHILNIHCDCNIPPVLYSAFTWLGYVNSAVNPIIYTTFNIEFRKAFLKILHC

Row | IC50 (α-1 receptor) [nM] | IC50 [1] [nM] | IC50 (D-2 dopamine receptor) [nM] | SMILES | ED50 (APO-induced sniffing) [mg/kg] | Sniff./Climb. ratio (APO-induced sniffing) | ED50 (APO-induced climbing) [mg/kg] | ED50 values (climbing) compared with clozapine, in words (APO-induced climbing; oral, relative to clozapine) | D-2/5-HT1A ratio [1] | oral activity as compared to clozapine (APO-induced climbing; oral, relative to clozapine) | activity on 5-HT1A receptor subtypes, in words [1]
1 | 57 | 202 | 17 | COc1ccccc1N1CCN(CCCOc2ccc(-c3cn4ccccc4n3)cc2)CC1 [Compound 4510067, 1-(2-Methoxyphenyl)-4-{3-[4-(2-imidazo[1,2-a]pyridinyl)phenoxy]propyl}piperazine] | 16.2 | 2.3 | 7.2 | – | – | – | –
2 | 542 | 802 | 258 | COc1ccccc1N1CCN(CCOc2ccc(-c3cc4ccccn4c3)cc2)CC1.Cl.Cl [Compound 4510407, 1-(2-Methoxyphenyl)-4-{2-[4-(2-indolizinyl)phenoxy]ethyl}piperazine dihydrochloride] | – | – | > 30 | – | – | – | –
3 | 36 | 70 | 56 | COc1ccccc1N1CCN(CCOc2ccc(-c3cn4ccccc4n3)cc2)CC1 [Compound 4510408, 1-(2-Methoxyphenyl)-4-{2-[4-(2-imidazo[1,2-a]pyridinyl)phenoxy]ethyl}piperazine] | ~10 | 4.1 | 2.4 | lower than or equal to that of clozapine | – | – | –
4 | 63 | 10 | 133 | COc1ccccc1N1CCN(CCOc2ccc(-c3cn4cccnc4n3)cc2)CC1 [Compound 4510411, 1-(2-Methoxyphenyl)-4-{2-[4-(2-imidazo[1,2-a]pyrimidinyl)phenoxy]ethyl}piperazine] | > 30 | > 8.8 | 3.4 | lower than or equal to that of clozapine | – | – | –
5 | 359 | 1000 | 77 | COc1ccccc1N1CCN(CCCOc2ccc(-c3cc4ccccn4c3)cc2)CC1.Cl.Cl [Compound 4510423, 1-(2-Methoxyphenyl)-4-{3-[4-[2-indolizinyl)phenoxy]propyl}piperazine dihydrochloride] | > 10 | > 2.4 | 4.1 | – | – | – | –
6 | 30 | 66 | 34 | COc1ccccc1N1CCN(CCCOc2ccc(-c3cn4cccnc4n3)cc2)CC1 [Compound 4510424, 1-(2-Methoxyphenyl)-4-{3-[4-(2-imidazo[1,2-a]pyrimidinyl)phenoxy]propyl}piperazine] | > 30 | 3.4 | 8.9 | – | – | – | –
7 | 75 | 29 | 117 | COc1ccccc1N1CCN(CCOc2ccc(-c3cn4c(n3)SCC4)cc2)CC1 [Compound 4510471, 1-(2-Methoxyphenyl)-4-{2-[4-[6-(2,3-dihydroimidazo[2,1-b]thiazol)-yl]phenoxy]ethyl}piperazine trihydrochloride] | > 30 | 4.8 | 6.3 | – | – | – | –
8 | 56 | 96 | 23 | COc1ccccc1N1CCN(CCCOc2ccc(-c3cn4ccsc4n3)cc2)CC1 [Compound 4510472, 1-(2-Methoxyphenyl)-4-{3-[4-[6-imidazo[2,1-b]thiazolyl)phenoxy]propyl}piperazine] | ~10 | 2.9 | 3.4 | lower than or equal to that of clozapine | – | – | –
9 | 48 | 122 | 29 | COc1ccccc1N1CCN(CCCOc2ccc(-c3cn4c(n3)SCC4)cc2)CC1 [Compound 4510473, 1-(2-Methoxyphenyl)-4-{3-[4-[6-(2,3-dihydroimidazo[2,1-b]thiazol)yl]phenoxy]jpropyl}piperazine] | > 30 | > 2.0 | 15.3 | – | – | – | –
10 | 842 | 243 | 99 | COc1ccccc1N1CCN(CCCCOc2ccc(-c3cc4ccccn4c3)cc2)CC1 [Compound 4510613, 1-(2-Methoxyphenyl)-4-{4-[4-(2-indolizinyl)phenoxy]butyl}piperazine] | > 30 | > 2.0 | 14.8 | – | – | – | –
11 | 22 | 12 | 55 | COc1ccccc1N1CCN(CCCCOc2ccc(-c3cn4cccnc4n3)cc2)CC1 [Compound 4510645, 1-(2-Methoxyphenyl)-4-{4-[4-(2-imidazo[1,2-a]pyrimidinyl)phenoxy]butyl}piperazine] | > 30 | > 1.5 | 20.5 | – | – | – | –
12 | 34 | 21 | 69 | COc1ccccc1N1CCN(CCCCOc2ccc(-c3cn4ccccc4n3)cc2)CC1 [Compound 4510915, 1-(2-Methoxyphenyl)-4-{4-[4-(2-imidazo[1,2-a]pyridinyl)phenoxy]butyl}piperazine] | – | – | 10.7 | – | – | – | –
13 | 16 | 9 | 56 | COc1ccccc1N1CCN(CCCCOc2ccc(-c3cn4c(n3)SCC4)cc2)CC1 [Compound 4510991, 1-(2-Methoxyphenyl)-4-{4-[4-[6-(2,3-dihydroimidazo[2,1-b]thiazol)-yl]phenoxy]butyl}piperazine] | > 30 | > 1.0 | ~30 | – | – | – | especially strong activity

Row | SMILES | IC50 (α-1 receptor) [nM] | IC50 [1] [nM] | IC50 (D-2 dopamine receptor) [nM] | ED50 (APO-induced sniffing) [mg/kg] | Sniff./Climb. ratio (APO-induced sniffing) | ED50 (APO-induced climbing) [mg/kg] | ED50 values (climbing) compared with clozapine, in words (APO-induced climbing; oral, relative to clozapine) | D-2/5-HT1A ratio [1] | oral activity as compared to clozapine (APO-induced climbing; oral, relative to clozapine) | activity on 5-HT1A receptor subtypes, in words [1]
14 | COc1ccccc1N1CCN(CCOc2ccc(-c3cn4ccsc4n3)cc2)CC1.Cl.Cl.Cl [Compound 4510470, 1-(2-Methoxyphenyl)-4-{2-[4-[6-imidazo[2,1-b]thiazolyl]phenoxy]ethyl}piperazine trihydrochloride] | 101 | 38 | 73 | 4.5 | 5.6 | 0.8 | – | 1.9 | ten-fold | –
15 | COc1ccccc1N1CCN(CCCCOc2ccc(-c3cn4ccsc4n3)cc2)CC1.Cl.Cl.Cl [Compound 4510916, 1-(2-Methoxyphenyl)4-{4-[4-[6-imidazo[2,1-b]thiazolyl]phenoxy]butyl}piperazine trihydrochloride] | 28 | 8 | 55 | ~30 | > 4.9 | 6.1 | – | 6.9 | – | especially strong activity
